The text below walks through data of ChEMBL document CHEMBL3091287, “The ameliorating effects of 2,3-dihydroxy-4-methoxyacetophenone on scopolamine-induced memory impairment in mice and its neuroprotective activity” (Bioorg Med Chem Lett, 2013).

Calls of active or inactive are those of the source. No cut-off for these calls is given here.

The subject of data set [1] is Radical scavenging activity. The data set is described as follows: Antioxidant activity assessed as DPPH radical scavenging activity after 30 mins. The data set is classed as functional. (In general: DPPH is a stable violet radical that fades when it is reduced.)
Data set [2] in a line: Antioxidant activity assessed as hydrogen peroxide radical scavenging activity. The format is functional.
Data set [3] deals with Mus musculus. As to the kind of experiment: Cognitive-enhancing effect in ICR mouse assessed as reduction of scopolamine-induced escape latency at 1 to 20 mg/kg, po administered 1 hr before scopolamine challenge measured on day 3 during trial 1 and 2 by Morris water maze test. The format is functional, organism-based.
Data set [4] has as its system Mus musculus. As to the kind of experiment: Toxicity in ICR mouse assessed as motor ability by measuring reduction of scopolamine-induced swimming speed at 1 to 50 mg/kg, po administered 1 hr before scopolamine challenge measured on day 4 by Morris water maze test. The format is organism-based. Further details: dose 1-50 mg/kg, route oral. The following applies: in vivo.

The test system of data set [5] is Mus musculus. The data set is described as follows: Cognitive-enhancing effect in ICR mouse assessed as reduction of scopolamine-induced increase in mean distance to platform at 1 to 50 mg/kg, po administered 1 hr before scopolamine challenge measured on day 4 by Morris water maze test. The data set is classed as functional, organism-based.
Data set [6] concerns Mus musculus. The data set is described as follows: Cognitive-enhancing effect in ICR mouse assessed as reduction of scopolamine-induced escape latency at 1 to 20 mg/kg, po administered 1 hr before scopolamine challenge measured on day 4 during trial 1 and 2 by Morris water maze test. The data set is classed as functional, organism-based.
Data set [7] deals with Mus musculus. The data set is described as follows: Cognitive-enhancing effect in ICR mouse assessed as reduction of scopolamine-induced escape latency at 40 mg/kg, po administered 1 hr before scopolamine challenge measured on day 3 during trial 1 and 2 by Morris water maze test. Also noted: dose 40 mg/kg. The format is functional, organism-based.
The subject of data set [8] is HT-22. As to the kind of experiment: Neuroprotective activity in mouse HT22 cells assessed as inhibition of glutamate-induced cell death at 10 uM after 24 hrs by MTT assay. The following applies: HT-22, 24 h. The format is functional. (Tetrazolium assays rely on reduction of a dye to a coloured formazan, in cell work by metabolically active cells.)
Data set [9] relates to HT-22. As to the kind of experiment: Neuroprotective activity in mouse HT22 cells assessed as inhibition of glutamate-induced increase of intracellular calcium level at 10 to 100 uM after 2 hrs by Fura-2 AM assay. The format is functional, cell-based. Background: Calcium flux is commonly read through the fluorescence of an indicator in the cells.
Data set [10] concerns HT-22. The data set is described as follows: Neuroprotective activity in mouse HT22 cells assessed as inhibition of glutamate-induced cell death after 24 hrs by MTT assay. The format is functional, cell-based.
The subject of data set [11] is Mus musculus. The data set is described as follows: Cognitive-enhancing effect in ICR mouse assessed as reduction of scopolamine-induced escape latency at 50 mg/kg, po administered 1 hr before scopolamine challenge measured on day 2 to 4 during trial 1 and 2 by Morris water maze test. The data set is classed as functional, organism-based. Further details: dose 50 mg/kg.

In general, IC50 refers to the midpoint of a concentration-inhibition curve. For the compound `O=C1O[C@H]([C@@H](O)CO)C(O)=C1O` [ASCORBIC ACID], the IC50 in [1] came out at 35.2 µM; in [2] it was 76.8 µM.
As a reminder, the inhibition is how much of the control response was suppressed. For orientation: EC50 means the concentration at which the effect is half-maximal. For the compound `COc1ccc(C(C)=O)c(O)c1O`, the outcome in the data set with Mus musculus [3] was inactive. The Activity entry in the data set on Mus musculus [4] is “Non-toxic”. For the same compound, the result with Mus musculus [5], in the data set with Mus musculus [6], in the data set with Mus musculus [7] and with Mus musculus [11] was Active. The IC50 stood at 98.1 µM in data set [1] and 90.8 µM in [2]. For the same compound, the inhibition entry (in data set [1]; in [2]; in the data set with HT-22 [10]) was “Dose-dependent effect” throughout. The inhibition at 10 µM in the data set with HT-22 [8] was found to be 50%. Moreover, the inhibition entry with HT-22 [9] was “Active”. Moreover, in the data set on HT-22 [10] (HT-22, 24 h), the EC50 was determined as 10.9 µM.
